Activity calls are given as the source filed them.
Columns and labels:
Protein Tat = molecular target: T1, Protein Tat (Human immunodeficiency virus type 1 group M subtype B (isolate HXB2)(HIV-1), UniProt P04608); type: functional;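 note: tat binding to TAR RNA read out by fluorescence polarization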
T1 sequence (P04608 whole entry): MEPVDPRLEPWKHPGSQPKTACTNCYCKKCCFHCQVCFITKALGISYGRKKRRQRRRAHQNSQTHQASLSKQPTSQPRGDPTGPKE

[1] = molecular target: T2, E3 ubiquitin-protein ligase XIAP (Homo sapiens, UniProt P98170); test: Counter Screen using XIAP-Bir3 for Chemical Antagonists of Bir1/2 domains of IAP-family anti-apoptotic proteins. [Related pubchem assays (depositor defined):AID1018, AID1449, AID1514, AID1638, AID1749, AID1750, AID488957, AID488963]
T2 sequence (P98170 whole entry): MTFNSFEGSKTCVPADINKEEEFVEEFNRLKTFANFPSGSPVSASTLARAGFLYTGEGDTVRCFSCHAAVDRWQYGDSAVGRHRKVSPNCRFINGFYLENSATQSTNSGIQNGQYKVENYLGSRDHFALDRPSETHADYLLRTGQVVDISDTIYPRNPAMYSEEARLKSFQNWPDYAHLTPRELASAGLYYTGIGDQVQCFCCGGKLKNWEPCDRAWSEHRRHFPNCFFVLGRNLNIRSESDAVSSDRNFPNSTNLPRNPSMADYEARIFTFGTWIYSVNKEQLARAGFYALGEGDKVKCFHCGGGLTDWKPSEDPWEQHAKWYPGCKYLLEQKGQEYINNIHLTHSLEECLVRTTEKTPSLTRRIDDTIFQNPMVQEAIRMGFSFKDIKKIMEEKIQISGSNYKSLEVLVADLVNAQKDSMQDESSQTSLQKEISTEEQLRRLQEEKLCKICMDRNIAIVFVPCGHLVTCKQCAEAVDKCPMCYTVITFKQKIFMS

[2] = molecular target: T2, E3 ubiquitin-protein ligase XIAP; test: small molecules displacing peptide from XIAP – biochemical, IAP family, fluorescence polarization (AID 1018); type: functional
[3] = molecular target: Peroxisome proliferator-activated receptor gamma/Nuclear receptor coactivator 2 (Homo sapiens, UniProt P37231); type: functional;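 note: agonist potency for raising coactivator recruitment to the receptor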
Peroxisome proliferator-activated receptor gamma/Nuclear receptor coactivator 2, sequence (P37231 whole entry): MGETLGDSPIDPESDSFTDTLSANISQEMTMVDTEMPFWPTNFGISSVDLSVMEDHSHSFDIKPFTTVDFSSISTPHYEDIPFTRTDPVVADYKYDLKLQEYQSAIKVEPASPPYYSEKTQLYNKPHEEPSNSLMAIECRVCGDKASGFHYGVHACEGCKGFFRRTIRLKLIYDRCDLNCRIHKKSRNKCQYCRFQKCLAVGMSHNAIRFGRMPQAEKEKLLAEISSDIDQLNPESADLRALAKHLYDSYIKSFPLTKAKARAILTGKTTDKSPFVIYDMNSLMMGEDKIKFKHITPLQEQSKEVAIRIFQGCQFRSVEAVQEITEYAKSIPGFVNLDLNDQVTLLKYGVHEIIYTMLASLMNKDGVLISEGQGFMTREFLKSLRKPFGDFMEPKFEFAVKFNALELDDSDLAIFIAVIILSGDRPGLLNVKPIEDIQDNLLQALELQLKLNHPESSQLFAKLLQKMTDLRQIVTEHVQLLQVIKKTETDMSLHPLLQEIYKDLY
Peroxisome proliferator-activated receptor gamma/Nuclear receptor coactivator 2, sequence (Q15596 whole entry, further chain): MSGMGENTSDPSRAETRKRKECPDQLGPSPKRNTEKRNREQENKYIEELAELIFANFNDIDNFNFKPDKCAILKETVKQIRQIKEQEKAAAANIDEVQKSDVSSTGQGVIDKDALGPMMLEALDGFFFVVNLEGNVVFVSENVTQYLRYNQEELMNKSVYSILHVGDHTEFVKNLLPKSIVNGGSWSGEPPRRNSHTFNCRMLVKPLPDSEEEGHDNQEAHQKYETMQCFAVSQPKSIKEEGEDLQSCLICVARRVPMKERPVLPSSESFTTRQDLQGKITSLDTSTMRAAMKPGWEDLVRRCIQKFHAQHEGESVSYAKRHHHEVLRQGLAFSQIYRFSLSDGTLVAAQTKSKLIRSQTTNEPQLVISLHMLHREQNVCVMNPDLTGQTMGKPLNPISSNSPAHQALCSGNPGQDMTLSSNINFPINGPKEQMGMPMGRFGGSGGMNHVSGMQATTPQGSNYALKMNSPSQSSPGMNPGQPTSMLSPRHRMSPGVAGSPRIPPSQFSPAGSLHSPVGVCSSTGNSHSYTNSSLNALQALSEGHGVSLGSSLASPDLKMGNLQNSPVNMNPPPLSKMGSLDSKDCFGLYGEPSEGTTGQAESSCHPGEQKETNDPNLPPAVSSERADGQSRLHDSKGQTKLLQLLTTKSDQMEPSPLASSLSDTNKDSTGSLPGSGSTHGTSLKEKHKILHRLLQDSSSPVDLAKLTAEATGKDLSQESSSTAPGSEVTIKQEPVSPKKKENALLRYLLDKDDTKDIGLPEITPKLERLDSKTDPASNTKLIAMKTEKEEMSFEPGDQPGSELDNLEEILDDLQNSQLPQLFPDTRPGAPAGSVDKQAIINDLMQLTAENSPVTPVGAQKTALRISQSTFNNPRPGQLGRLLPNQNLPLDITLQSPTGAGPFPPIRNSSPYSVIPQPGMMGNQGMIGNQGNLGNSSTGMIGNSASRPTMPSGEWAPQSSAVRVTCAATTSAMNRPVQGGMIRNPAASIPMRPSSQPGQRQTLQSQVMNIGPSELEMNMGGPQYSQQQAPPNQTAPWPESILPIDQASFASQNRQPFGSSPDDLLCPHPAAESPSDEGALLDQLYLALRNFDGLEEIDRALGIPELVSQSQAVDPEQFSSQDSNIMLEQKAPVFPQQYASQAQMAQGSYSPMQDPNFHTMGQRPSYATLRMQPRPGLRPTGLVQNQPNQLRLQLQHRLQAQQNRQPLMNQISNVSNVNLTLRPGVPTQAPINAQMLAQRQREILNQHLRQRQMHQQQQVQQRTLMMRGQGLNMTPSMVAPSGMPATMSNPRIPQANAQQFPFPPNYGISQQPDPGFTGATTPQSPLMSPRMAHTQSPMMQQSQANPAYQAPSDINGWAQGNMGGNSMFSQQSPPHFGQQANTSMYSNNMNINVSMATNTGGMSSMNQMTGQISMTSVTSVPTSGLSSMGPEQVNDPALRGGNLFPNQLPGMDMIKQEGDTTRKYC

[4] = molecular target: Peroxisome proliferator-activated receptor gamma/Nuclear receptor coactivator 1 (Homo sapiens, UniProt P37231); type: functional;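 note: agonist potency as compounds enhance coactivator SRC-1 recruitment to PPARgamma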
[5] = molecular target: Peroxisome proliferator-activated receptor gamma/Nuclear receptor coactivator 3 (Homo sapiens, UniProt P37231); type: functional;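 note: agonist potency for raising coactivator recruitment to the receptor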
Cytochrome P450 3A4 = Cytochrome P450 3A4 (Homo sapiens, UniProt P08684); settings: Potency;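 note: confirmatory qHTS run detecting inhibitors and substrates of CYP3A4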
Cytochrome P450 3A4, sequence (P08684 whole entry): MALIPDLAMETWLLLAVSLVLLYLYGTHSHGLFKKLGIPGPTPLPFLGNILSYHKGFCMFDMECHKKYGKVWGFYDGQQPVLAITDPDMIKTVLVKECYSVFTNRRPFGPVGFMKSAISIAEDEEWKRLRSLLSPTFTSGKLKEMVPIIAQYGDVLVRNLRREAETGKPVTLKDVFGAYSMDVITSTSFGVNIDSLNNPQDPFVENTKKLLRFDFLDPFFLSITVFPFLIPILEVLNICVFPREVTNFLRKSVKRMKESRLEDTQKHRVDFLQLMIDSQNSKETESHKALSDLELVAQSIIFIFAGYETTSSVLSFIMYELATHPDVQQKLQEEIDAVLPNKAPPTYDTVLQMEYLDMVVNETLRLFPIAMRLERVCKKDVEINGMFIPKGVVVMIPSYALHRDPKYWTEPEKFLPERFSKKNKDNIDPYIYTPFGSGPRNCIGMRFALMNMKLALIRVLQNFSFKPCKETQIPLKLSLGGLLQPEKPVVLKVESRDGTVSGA

[6] = molecular target: Glyceraldehyde-3-phosphate dehydrogenase (Homo sapiens, UniProt P04406)
Glyceraldehyde-3-phosphate dehydrogenase, sequence (P04406 whole entry): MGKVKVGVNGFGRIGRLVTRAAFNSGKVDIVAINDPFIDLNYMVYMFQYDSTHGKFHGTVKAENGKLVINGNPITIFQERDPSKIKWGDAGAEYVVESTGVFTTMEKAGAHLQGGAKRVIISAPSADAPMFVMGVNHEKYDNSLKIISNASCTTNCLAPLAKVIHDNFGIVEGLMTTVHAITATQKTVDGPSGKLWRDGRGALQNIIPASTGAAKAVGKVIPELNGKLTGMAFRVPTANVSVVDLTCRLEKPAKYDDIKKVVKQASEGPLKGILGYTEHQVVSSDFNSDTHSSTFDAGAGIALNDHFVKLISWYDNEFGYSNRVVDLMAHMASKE

Bcl-2-related protein A1 [7] = molecular target: T3, Bcl-2-related protein A1 (Mus musculus, UniProt Q07440); test: small-molecule antagonists of Bfl-1/BH3 interaction – biochemical, TR-FRET, mouse Bfl-1, confirmation (AID 621);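 note: TR-FRET binding of GST-Bfl-1 to FITC-labelled Bid peptide via terbium antibody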
T3 sequence (Q07440 whole entry): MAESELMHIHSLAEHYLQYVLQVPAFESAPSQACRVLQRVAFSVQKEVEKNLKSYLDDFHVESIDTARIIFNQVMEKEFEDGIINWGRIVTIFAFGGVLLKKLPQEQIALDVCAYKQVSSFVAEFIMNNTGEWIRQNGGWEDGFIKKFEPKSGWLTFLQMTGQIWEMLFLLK

Bcl-2-related protein A1 [8] = molecular target: T3, Bcl-2-related protein A1; test: Bfl-1 binding inhibitors, SAR follow-up, biochemical, fluorescence polarization (AID 1070)
Estrogen receptor beta = Estrogen receptor beta (Homo sapiens, UniProt Q92731); test: blockers of SRC-3 recruitment to ERβ – biochemical, ELISA, streptavidin-HRP readout, orthogonal assay, confirmation (AID 1060)
Estrogen receptor beta, sequence (Q92731 whole entry): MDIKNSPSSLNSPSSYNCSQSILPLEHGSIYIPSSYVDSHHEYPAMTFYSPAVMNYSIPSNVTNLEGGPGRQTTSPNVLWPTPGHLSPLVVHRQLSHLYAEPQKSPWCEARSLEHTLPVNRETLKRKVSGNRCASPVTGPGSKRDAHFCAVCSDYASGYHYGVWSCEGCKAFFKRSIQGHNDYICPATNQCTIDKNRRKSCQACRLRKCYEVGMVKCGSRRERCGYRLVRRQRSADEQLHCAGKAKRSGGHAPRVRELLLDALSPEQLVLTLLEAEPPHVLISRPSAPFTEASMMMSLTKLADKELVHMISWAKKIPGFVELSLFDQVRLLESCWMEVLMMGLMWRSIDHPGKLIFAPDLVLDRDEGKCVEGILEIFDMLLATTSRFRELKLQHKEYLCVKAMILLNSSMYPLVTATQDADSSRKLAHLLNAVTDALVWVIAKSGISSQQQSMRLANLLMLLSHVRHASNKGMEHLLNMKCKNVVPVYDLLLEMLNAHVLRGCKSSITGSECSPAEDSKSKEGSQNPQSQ

For COCOC1CCC2C3CCC4=CC(=O)CCC4=C3C=CC12C (stereo unspecified), the IC50 (Protein Tat) was > 100 µM (active).

For CC(C)CC1(C(=O)O)NC(c2ccccc2O)C2C(=O)N(C(C)C)C(=O)C21 (stereo unspecified), the IC50 [1] was > 100 µM (inactive) and the IC50 [2] was > 100 µM (not active).

With O=C(Nc1cccc(NS(=O)(=O)c2ccc(S(=O)(=O)NC3CC3)cc2)c1)c1ccccn1 the EC50 [3] was > 79.4 µM (not active), the EC50 [4] was > 79.4 µM (not active) and the EC50 [5] was > 79.4 µM (not active).

For S=C(NC1CCCCC1)NC1CCCCC1, the AC50 (Cytochrome P450 3A4) was 25.1 µM (inconclusive).

In the case of O=C1C(Cl)=C(N2CCN(CCOCCO)CC2)C(=O)N1c1ccc([N+](=O)[O-])cc1, the IC50 [6] is reported as > 100 µM (not active), the IC50 (Bcl-2-related protein A1 [7]) is reported as 3.51 µM (active) and the IC50 (Bcl-2-related protein A1 [8]) is reported as 2.59 µM (active).

With O=C1C(Cl)=C(N2CCN(c3ccc(Cl)cc3)CC2)C(=O)N1c1ccc(Cl)c(Cl)c1 the IC50 [6] was > 100 µM (not active), the IC50 (Bcl-2-related protein A1 [7]) was > 100 µM (not active) and the IC50 (Bcl-2-related protein A1 [8]) was > 100 µM (not active).

With O=C1C(Cl)=C(Cl)C(=O)N1c1c(Cl)cccc1Cl the IC50 [6] was > 100 µM (not active), the IC50 (Bcl-2-related protein A1 [7]) was 30 µM (active) and the IC50 (Bcl-2-related protein A1 [8]) was > 100 µM (not active).

In the case of COC(=O)c1ccc(NC(=O)CSc2nc(C)cc(=O)[nH]2)cc1, the IC50 (Estrogen receptor beta) is reported as > 50 µM (not active).

With NC(=O)CNCCC(c1ccccc1)c1ccccc1 the AC50 (Cytochrome P450 3A4) was 15.8 µM (inconclusive).

For Cc1nc(NC2CCCCC2)c2nc(-c3ccccc3)n(CCN3CCCC3)c2n1, the AC50 (Cytochrome P450 3A4) was 25.1 µM (inconclusive).

For Cc1ccc(N(CC(=O)N/N=C/c2cccc(Br)c2)S(C)(=O)=O)cc1, the IC50 [1] was > 100 µM (inactive) and the IC50 [2] was > 100 µM (not active).
